Reference: ChEMBL document CHEMBL6096724, “Sulfonium Moieties as Ammonium Bioisosteres: Novel Ligands for the Alpha7 Nicotinic Acetylcholine Receptor” (J Med Chem, 2025)
Active and inactive are the calls of the source. The calls are words filed in the database; no cut-off is given here.

What was measured:
[1] = target: T1, Neuronal acetylcholine receptor subunit alpha-7 (Homo sapiens, UniProt P36544); assay: Silent agonist activity at human alpha7 nAChR expressed in acetylcholine-treated xenopus laevis oocytes at 30 uM in presence of PNU-120596 by two electrode voltage-clamp assay; format: cell-based; conditions: Oocyte
T1 sequence (P36544 whole entry): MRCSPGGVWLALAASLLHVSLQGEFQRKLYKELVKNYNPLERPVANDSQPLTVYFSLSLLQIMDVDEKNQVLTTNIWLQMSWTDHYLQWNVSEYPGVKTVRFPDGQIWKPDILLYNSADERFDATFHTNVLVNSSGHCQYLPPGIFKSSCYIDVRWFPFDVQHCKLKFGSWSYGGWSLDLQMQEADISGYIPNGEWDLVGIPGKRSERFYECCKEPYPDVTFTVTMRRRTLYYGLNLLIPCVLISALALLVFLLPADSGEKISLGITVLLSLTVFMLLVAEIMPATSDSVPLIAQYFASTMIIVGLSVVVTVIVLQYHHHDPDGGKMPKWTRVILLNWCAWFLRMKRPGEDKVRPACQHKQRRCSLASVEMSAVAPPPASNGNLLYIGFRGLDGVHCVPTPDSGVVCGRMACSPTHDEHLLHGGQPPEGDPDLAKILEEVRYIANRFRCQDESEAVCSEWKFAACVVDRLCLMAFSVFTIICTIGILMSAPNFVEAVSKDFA

[2] = target: T1, Neuronal acetylcholine receptor subunit alpha-7; assay: Desensitization of human alpha7 nAChR expressed in acetylcholine-treated xenopus laevis oocytes at 30 uM by two electrode voltage-clamp assay; format: cell-based; conditions: Oocyte
[3] = target: T1, Neuronal acetylcholine receptor subunit alpha-7; assay: Desensitization of human alpha7 nAChR expressed in acetylcholine-treated xenopus laevis oocytes at 30 uM pretreated with acetylcholine followed by compound treatment and re-treatment of acetylcholine thrice by two electrode voltage-clamp assay; format: cell-based; conditions: Oocyte
[4] = target: T1, Neuronal acetylcholine receptor subunit alpha-7; assay: Agonist activity at human alpha7 nAChR expressed in xenopus laevis oocytes assessed as activation of acetylcholine-induced response by two electrode voltage-clamp assay (reference value: 1); format: cell-based; conditions: Oocyte, filed as agonist
[5] = target: T1, Neuronal acetylcholine receptor subunit alpha-7; assay: Agonist activity at human alpha7 nAChR expressed in xenopus laevis oocytes assessed as activation of acetylcholine-induced response by two electrode voltage-clamp assay; format: cell-based, Oocyte
[6] = target: T1, Neuronal acetylcholine receptor subunit alpha-7; assay: Antagonist activity at human alpha7 nAChR expressed in acetylcholine-treated xenopus laevis oocytes at 30 uM by two electrode voltage-clamp assay; format: cell-based; conditions: Oocyte, filed as antagonist
[7] = target: T1, Neuronal acetylcholine receptor subunit alpha-7; assay: Antagonist activity at human alpha7 nAChR expressed in xenopus laevis oocytes assessed as inhibition of acetylcholine-induced response by two electrode voltage-clamp assay; format: cell-based, Oocyte
[8] = target: T2, Neuronal acetylcholine receptor subunit alpha-9 (Homo sapiens, UniProt Q9UGM1); assay: Agonist activity at human alpha9 nAChR expressed in xenopus laevis oocytes assessed as activation of acetylcholine-induced response by two electrode voltage-clamp assay (reference value: 1); format: cell-based; conditions: Oocyte, filed as agonist
T2 sequence (Q9UGM1 whole entry): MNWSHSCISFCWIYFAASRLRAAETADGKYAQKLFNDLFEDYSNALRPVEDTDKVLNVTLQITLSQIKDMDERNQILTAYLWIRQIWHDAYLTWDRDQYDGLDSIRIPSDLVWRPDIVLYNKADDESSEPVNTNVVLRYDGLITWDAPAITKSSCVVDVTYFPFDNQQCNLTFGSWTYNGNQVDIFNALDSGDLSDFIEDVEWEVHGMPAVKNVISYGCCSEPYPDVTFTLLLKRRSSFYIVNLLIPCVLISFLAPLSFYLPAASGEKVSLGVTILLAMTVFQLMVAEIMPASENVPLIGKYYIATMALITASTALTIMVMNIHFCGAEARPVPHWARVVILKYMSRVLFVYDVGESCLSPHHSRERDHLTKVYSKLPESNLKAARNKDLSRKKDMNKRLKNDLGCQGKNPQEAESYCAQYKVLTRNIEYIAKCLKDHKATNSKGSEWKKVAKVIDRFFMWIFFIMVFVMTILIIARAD

[9] = target: T2, Neuronal acetylcholine receptor subunit alpha-9; assay: Agonist activity at human alpha9 nAChR expressed in xenopus laevis oocytes assessed as activation of acetylcholine-induced response by two electrode voltage-clamp assay; format: cell-based, Oocyte
Mus musculus [10] = assay: Anti-allodynic effect in C57BL/6J mouse model of CFA-induced chronic inflammatory pain assessed as reduction in mechanical hypersensitivity at 3 mg/kg, ip measured after 1 hr; format: functional, organism-based
Mus musculus [11] = assay: Anti-allodynic effect in C57BL/6J mouse model of CFA-induced chronic inflammatory pain assessed as reduction in mechanical hypersensitivity at 3 mg/kg, ip measured after 6 hrs; format: functional, organism-based
Mus musculus [12] = assay: Effect on von Frey responses in C57BL/6J mouse model of CFA-induced chronic inflammatory pain at 1 to 3 mg/kg, ip measured for 0.5 to 6 hrs; format: functional, organism-based; conditions: dose 1-3 mg/kg, time 0.5-6 hrs
Mus musculus [13] = assay: Anti-inflammatory activity in C57BL/6J mouse model of CFA-induced chronic inflammatory pain assessed as reduction in paw edema at 1 to 3 mg/kg, ip measured for 0.5 to 6 hrs; format: functional, organism-based; conditions: dose 1-3 mg/kg, time 0.5-6 hrs
Mus musculus [14] = assay: Effect on locomotor activity in C57BL/6J mouse model of CFA-induced chronic inflammatory pain at 3 mg/kg, ip measured for 0.5 to 6 hrs; format: functional, organism-based; conditions: time 0.5-6 hrs
[15] = target: T1, Neuronal acetylcholine receptor subunit alpha-7; assay: Desensitization of human alpha7 nAChR expressed in acetylcholine-treated xenopus laevis oocytes at 30 uM pretreated with acetylcholine followed by compound treatment and re-treatment of acetylcholine by two electrode voltage-clamp assay; format: cell-based; conditions: Oocyte
[16] = target: T1, Neuronal acetylcholine receptor subunit alpha-7; assay: Silent agonist activity at human alpha7 nAChR expressed in acetylcholine-treated xenopus laevis oocytes assessed as potentiated response at 30 uM in presence of PNU-120596 by two electrode voltage-clamp assay; format: cell-based; conditions: Oocyte, filed as agonist
[17] = target: T1, Neuronal acetylcholine receptor subunit alpha-7; assay: Silent agonist activity at human alpha7 nAChR expressed in acetylcholine-treated xenopus laevis oocytes assessed as relative response at 30 uM by two electrode voltage-clamp assay; format: cell-based; conditions: Oocyte, filed as agonist
Mus musculus [18] = assay: Anti-allodynic effect in C57BL/6J mouse model of CFA-induced chronic inflammatory pain assessed as reduction in mechanical hypersensitivity at 0.3 mg/kg, ip measured after 1 hr; format: functional, organism-based
Mus musculus [19] = assay: Anti-allodynic effect in C57BL/6J mouse model of CFA-induced chronic inflammatory pain assessed as reduction in mechanical hypersensitivity at 1 mg/kg, ip measured for 1 hr relative to control; format: functional; set-up: scale not given: the % may be the effect or the level left
Mus musculus [20] = assay: Anti-allodynic effect in C57BL/6J mouse model of CFA-induced chronic inflammatory pain assessed as reduction in mechanical hypersensitivity at 0.3 to 1 mg/kg, ip measured for 6 hrs; format: functional, organism-based; conditions: dose 0.3-1 mg/kg
Mus musculus [21] = assay: Effect on von Frey responses in C57BL/6J mouse model of CFA-induced chronic inflammatory pain at 0.3 to 1 mg/kg, ip measured for 0.5 to 6 hrs; format: functional, organism-based; conditions: dose 0.3-1 mg/kg, time 0.5-6 hrs
Mus musculus [22] = assay: Anti-inflammatory activity in C57BL/6J mouse model of CFA-induced chronic inflammatory pain assessed as reduction in paw edema at 1 mg/kg, ip measured for 0.5 to 6 hrs; format: functional, organism-based; conditions: time 0.5-6 hrs
Mus musculus [23] = assay: Anti-nociceptive effect in CFA C57BL/6J mouse model with alpha7 nAChR knockout at 1 mg/kg, ip measured after 3 days; format: functional, organism-based; conditions: time 3.0 day
Mus musculus [24] = assay: Effect on locomotor activity in C57BL/6J mouse model of CFA-induced chronic inflammatory pain at 1 mg/kg, ip measured for 0.5 to 6 hrs; format: functional, organism-based; conditions: time 0.5-6 hrs
[25] = target: T2, Neuronal acetylcholine receptor subunit alpha-9; assay: Antagonist activity at human alpha9 nAChR expressed in xenopus laevis oocytes assessed as inhibition of acetylcholine-induced response by two electrode voltage-clamp assay; format: cell-based, Oocyte
[26] = target: T2, Neuronal acetylcholine receptor subunit alpha-9; assay: Activation of human alpha9 nAChR expressed in xenopus laevis oocytes at 30 uM by two electrode voltage-clamp assay; format: cell-based; conditions: Oocyte
[27] = target: T2, Neuronal acetylcholine receptor subunit alpha-9; assay: Silent agonist activity at human alpha9 nAChR expressed in acetylcholine-treated xenopus laevis oocytes at 30 uM by two electrode voltage-clamp assay; format: cell-based; conditions: Oocyte, filed as agonist

Compound: C[S+]1CCN(C(=O)c2ccc(-c3cccc(C(F)(F)F)c3)o2)CC1
- Activity [1]: inactive
- Activity ([2]; filed as agonist): Active; Silent Agonist Activity Observed
- Activity [3]: inactive
- max activation [4]: 0.26
- EC50 [5]: 2.4 µM

Compound: CSCCNC(=O)c1ccc(-c2cccc(C(F)(F)F)c2)o1
- Activity [1]: inactive

Compound: O=C(c1ccco1)N1CC[S+]2CCC1CC2
- Activity [6]: Active

Compound: CC[S+](CC)CCNC(=O)c1ccc(-c2cccc(C(F)(F)F)c2)o1
- Activity [6]: Active
- IC50 [7]: 2.82 µM
- max activation [8]: 0.18
- EC50 [9]: 2380 nM
- Activity (Mus musculus [10]): Active
- Activity (Mus musculus [11]): inactive
- Activity (Mus musculus [12]): No effect
- Activity (Mus musculus [13]): inactive
- Activity (Mus musculus [14]): No effect

Compound: C1C[S+]2CCC(CC2)N1
- Activity [1]: inactive
- Activity [2]: inactive
- Activity [15]: inactive
- max activation [4]: 0.98
- EC50 [5]: 41 µM

Compound: CSCCCNC(=O)c1ccc(-c2cccc(C(F)(F)F)c2)o1
- Activity [1]: inactive

Compound: CC[S+]1CCN(C(=O)c2ccc(-c3cccc(C(F)(F)F)c3)o2)CC1.O=S(=O)([O-])C(F)(F)F
- Activity ([1]; filed as agonist): Active; Silent Agonist Activity Observed
- Activity [16]: 11.2
- Activity [17]: 0.016
- Activity (Mus musculus [18]): Active
- Activity (Mus musculus [19]): 100%
- Activity (Mus musculus [20]): inactive
- Activity (Mus musculus [21]): No effect
- Activity (Mus musculus [22]): Active
- Activity (Mus musculus [23]): Active
- Activity (Mus musculus [24]): No effect

Compound: C[S+]1CCCN(C(=O)c2ccc(-c3cccc(C(F)(F)F)c3)o2)CC1 (stereo unspecified)
- Activity ([1]; filed as agonist): Active; Silent Agonist Activity Observed
- IC50 [25]: 7.9 µM

Compound: C[S+](C)CCNC(=O)c1ccc(-c2cccc(C(F)(F)F)c2)o1
- Activity [1]: inactive

Compound: O=C(c1ccc(-c2cccc(C(F)(F)F)c2)o1)N1CCCSCC1
- Activity [1]: inactive

Compound: CC[S+]1CCCN(C(=O)c2ccc(-c3cccc(C(F)(F)F)c3)o2)CC1 (stereo unspecified)
- Activity [6]: Active
- IC50 [7]: 26.3 µM
- IC50 [25]: 4.03 µM

Compound: CCSCCNC(=O)c1ccc(-c2cccc(C(F)(F)F)c2)o1
- Activity [1]: inactive

Compound: O=C(c1ccc(-c2cccc(C(F)(F)F)c2)o1)N1CCN2CCC1CC2
- Activity [26]: inactive
- Activity [27]: Active; Silent Agonist Activity Observed

Compound: O=C(c1ccc(-c2cccc(C(F)(F)F)c2)o1)N1CC[S+]2CCC1CC2
- Activity [6]: Active
- IC50 [7]: 5.24 µM

Compound: O=C(c1ccc(-c2cccc(C(F)(F)F)c2)o1)N1CCSCC1
- Activity [1]: inactive

Compound: C[S+](C)CCCNC(=O)c1ccc(-c2cccc(C(F)(F)F)c2)o1
- Activity ([1]; filed as agonist): Active; Silent Agonist Activity Observed
